pIC50: −log10 of the molar value.
Assays:
SIRT1 = target: T1, SIRT1 (Homo sapiens, UniProt Q96EB6); experiment: Mass spectrometry based assay to identify modulators of SIRT1 activity (deacetylation of p53-based acetylated peptide substrate); assay type: biochemical; settings: SIRT1 activation; for Emax: 25 min, read-out: % FOLD ACT. (percent maximum fold activation)
T1 sequence (Q96EB6 1-747): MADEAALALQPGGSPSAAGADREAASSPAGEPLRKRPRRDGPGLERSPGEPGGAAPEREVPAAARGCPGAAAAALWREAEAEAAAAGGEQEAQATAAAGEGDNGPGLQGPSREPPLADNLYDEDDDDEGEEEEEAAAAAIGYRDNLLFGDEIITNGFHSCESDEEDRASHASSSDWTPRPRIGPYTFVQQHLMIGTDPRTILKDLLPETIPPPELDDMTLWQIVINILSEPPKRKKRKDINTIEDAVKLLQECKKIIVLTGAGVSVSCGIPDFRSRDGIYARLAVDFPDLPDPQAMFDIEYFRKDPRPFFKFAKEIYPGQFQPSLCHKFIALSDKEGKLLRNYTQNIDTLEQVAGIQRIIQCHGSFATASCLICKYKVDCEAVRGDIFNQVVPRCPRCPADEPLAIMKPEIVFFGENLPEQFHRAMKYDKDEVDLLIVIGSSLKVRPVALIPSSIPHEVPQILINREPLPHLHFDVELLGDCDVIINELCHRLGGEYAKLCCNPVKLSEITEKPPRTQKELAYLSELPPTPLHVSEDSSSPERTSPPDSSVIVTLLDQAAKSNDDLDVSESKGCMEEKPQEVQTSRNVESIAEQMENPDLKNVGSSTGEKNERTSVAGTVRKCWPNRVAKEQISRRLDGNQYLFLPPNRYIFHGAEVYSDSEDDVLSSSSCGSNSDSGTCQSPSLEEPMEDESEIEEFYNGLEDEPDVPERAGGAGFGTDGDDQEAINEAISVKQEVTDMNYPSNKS
Method in brief: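 Deacetylation of a modified p53 acetyl-lysine peptide ([…], 5TMR-labelled, Nle for Met) by 10 nM N-His SIRT1 with 120 μM βNAD+, pH 8, 25 min, 25 °C. Substrate and product masses measured by MS after formic acid quench; nicotinamide defines maximal inhibition.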

TNF = TNF IC50 (column of Table 1; method not shown); assay type: cell-based

SMILES | Emax (SIRT1) | EC1.5 (SIRT1) | pIC50 (TNF)
Cc1csc(NC(=O)N2CCCOc3ccc(-c4cccc(Cl)c4)nc32)n1 [Compound 607] | > 200% | A (EC1.5<1.0 μM) | ≤ 4.70
O=C(Nc1ccccn1)N1CCOc2ccc(-c3cccc(C(F)(F)F)c3)nc21 [Compound 502] | > 200% | A (EC1.5<1.0 μM) | ≤ 4.70
O=C(Nc1ccnc(N2CCCC2)c1)N1CCCOc2ccc(-c3cccc(Cl)c3)nc21 [Compound 609] | > 200% | A (EC1.5<1.0 μM) | > 4.70
Cc1cncc(NC(=O)N2CCCc3ccc(-c4cccc(Cl)c4)nc32)c1 [Compound 599] | > 200% | A (EC1.5<1.0 μM) | ≤ 4.70
O=C(Nc1ccccn1)N1CCCc2ccc(-c3cccc(C(F)(F)F)c3)nc21 [Compound 646] | > 200% | A (EC1.5<1.0 μM) | > 4.70
Cc1cc(NC(=O)N2CC(C)(C)Oc3ccc(-c4cccc(N5CCCC5)c4)nc32)cc(C)n1 [Compound 605] | > 200% | A (EC1.5<1.0 μM) | ≤ 4.70
Cc1cc(C)nc(NC(=O)N2CCOc3c(C)cc(-c4cccc(C(F)(F)F)c4)nc32)c1 [Compound 672] | ≤ 200% | A (EC1.5<1.0 μM) | ≤ 4.70
Cc1cncc(NC(=O)N2CCOc3c(C)cc(-c4cccc(Cl)c4)nc32)c1 [Compound 688] | > 200% | A (EC1.5<1.0 μM) | ≤ 4.70
Cc1csc(NC(=O)N2CCOc3c(C)cc(-c4cccc(C(F)(F)F)c4)nc32)n1 [Compound 668, 8-methyl-N-(4-methylthiazol-2-yl)-6-(3-(trifluoromethyl)phenyl)-2H-pyrido[3,2-b][1,4]oxazine-4(3H)-carboxamide] | > 200% | A (EC1.5<1.0 μM) | ≤ 4.70
O=C(Nc1ccnc(N2CCC2)c1)N1CCCOc2ccc(-c3cccc(Cl)c3)nc21 [Compound 608] | > 200% | A (EC1.5<1.0 μM) | > 4.70
O=C(Nc1cncc(F)c1)N1CCCc2ccc(-c3cccc(C(F)(F)F)c3)nc21 [Compound 586] | > 200% | A (EC1.5<1.0 μM) | > 4.70
O=C(Nc1cccc(N2CCOCC2)n1)N1CCOc2ccc(-c3cccc(C(F)(F)F)c3)nc21 [Compound 506, N-(6-morpholinopyridin-2-yl)-6-(3-(trifluoromethyl)phenyl)-2H-pyrido[3,2-b][1,4]oxazine-4(3H)-carboxamide] | > 200% | A (EC1.5<1.0 μM) | ≤ 4.70
Cc1cc(NC(=O)N2CCCc3ccc(-c4cccc(C(F)(F)F)c4)nc32)cc(C)n1 [Compound 587] | > 200% | A (EC1.5<1.0 μM) | > 4.70
Cc1cc(NC(=O)N2CC(C)(C)Oc3ccc(-c4cccc(N(C)C)c4)nc32)cc(C)n1 [Compound 597] | > 200% | A (EC1.5<1.0 μM) | > 4.70
Cc1cc(NC(=O)N2CCOc3c(C)cc(-c4cccc(C(F)(F)F)c4)nc32)cc(C)n1 [Compound 671] | > 200% | A (EC1.5<1.0 μM) | > 4.70
O=C(Nc1ccnc(N2CCC2)c1)N1CCCc2ccc(-c3cccc(Cl)c3)nc21 [Compound 617] | > 200% | A (EC1.5<1.0 μM) | > 4.70
Cc1cc(-c2cccc(C(F)(F)F)c2)nc2c1OCCN2C(=O)Nc1ccncc1F [Compound 663] | > 200% | A (EC1.5<1.0 μM) | ≤ 4.70
O=C(Nc1ccnc(OCC(O)CO)n1)N1CCCc2ccc(-c3cccc(C(F)(F)F)c3)nc21 (stereo not drawn) [Compound 639] | > 200% | A (EC1.5<1.0 μM) | > 4.70
Cc1cc(-c2cccc(C(F)(F)F)c2)nc2c1OCCN2C(=O)Nc1ccncn1 [Compound 669] | > 200% | A (EC1.5<1.0 μM) | ≤ 4.70

From US9556201B2, “Bicyclic pyridines and analogs as sirtuin modulators” (GLAXOSMITHKLINE LLC, priority 2009, dated 2017)
